# Measured values reported in US20220332758A1, “PEPTIDE-BASED COMPOSITIONS AND METHODS FOR TREATING ALZHEIMER'S DISEASE” (Board of Regents, The Universityof Texas System, priority 2019, published 2022).
# Key:
# [1] = molecular target: T1, purified human 26S proteasome (Homo sapiens, UniProt P25787+P60900); test: In-gel overlay activity on non-denaturing gel, 26S proteasome; format: biochemical; conditions: 1 microM, 15 min, 100 microM Suc-LLVY-MCA
# T1 construct: purchased Boston Biochemicals (Boston Biochem)
# Experimental: Purified human 20S and 26S proteasomes were separated on non-denaturing polyacrylamide gel. The gel was overlayed with reaction buffer containing 100 microM fluorogenic peptide substrate Suc-LLVY-MCA (SEQ ID NO: 14) and 1% of vehicle solvent (DMSO) or the substrate and 1 microM Tat1 8,9 TOD. The gel was photographed after 15 min of incubation and then stained for the total protein content with Coomassie Brilliant Blue, and photographed. […] The protein content was the same for the control and Tat-overlayed sets. The activities of both 26S and 20S are enhanced by Tat1 8,9 TOD. The enhanced activity of 26S was not the result of Tat1 8,9 TOD—induced breaking of the 26S assembly into its components (19S and 20S) and activation of the released 20S catalytic core that still remains in the gel together with the whole 26S assembly. […] Traces of the 20S in both control 26S preparation and preparation pre-incubated with Tat1 8,9 TOD.
# [2] = tested on: MC65 cells; test: Cell death in MC65 AD cell model under tetracycline withdrawal (WST-1 viability); format: cell-based, human
# Experimental: Cell culture. Cells were cultured in EMEM (SK-N-SH), DMEM (MC65) supplemented with 10% heat-inactivated fetal bovine serum and antibiotics (100 U mL^−1 penicillin, 100 μg mL^−1 streptomycin, and 0.25 μg mL^−1 of amphotericin B; Gibco-Invitrogen). Incubators were maintained at 5% CO2, and 37° C. Medium was replaced every 3-4days. For most experiments, cells were seeded at 100,000 cells mL^−1 in either 6-well or 96 well plates 24 h prior to assay. In most cases, media was replaced with serum free optimem media 24 h prior to assay.
# Cell viability. Cell maintained in a clear 96 well plate. On the day of assay, 10 μl of WST-1 reagent (11644807001, Sigma Aldrich) was added to each well and cells incubated in a 37° C. 5% CO2 incubator for 2-4 hours. Absorbance was measured at 450 nm using a gemini series spectrophotometer.
# The compounds were tested as follows: in neuroblast MC65 cell culture model with overexpressed C99 fragment of amyloid precursor protein (APP) upon tetracycline withdrawal or with external APP added; and in fruit fly (D. melanogaster) model of AD with overexpressed APP and BACE1. The compounds (1 μM) were mixed with food. Flies were trained to recognize “positive” and “negative” odors (olfaction aversion). The compounds were also treated in hAPP (J20) mice which overexpress a familial variant of APP. The compounds were injected for 14 days (1 mg/kg). […]
smiles,measurement,setting,value
"N=C(N)NCCCC(NC(=O)CN)C(=O)NC(CCCCN)C(=O)NC(CCCCN)C(=O)NC(CCCNC(=N)N)C(=O)NC(CCCNC(=N)N)C(=O)NC(CCC(N)=O)C(=O)N1Cc2ccccc2C[C@H]1C(=O)N1C(C(=O)NC(CCCNC(N)N)C(=O)N2CCCC2C(=O)NC(CO)C(=O)O)CC2CCCCC21 (stereo partly drawn) [(5), GRKKRRQ-TOD-RPS]",26S activity in gel overlay,[1],enhanced
same,survival of neuroblasts overexpressing APP,[2]; 1 μM,improves survival
same,cell death under tetracycline withdrawal,"[2]; MC65, WST1 viability assay",significantly reduces cell death
